# Experiments:
# Assay in all cases: relative viability (nuclei count vs DMSO), 5 days (fraction); higher = more cells survive
# [1] = compound: Cc1ccc2nc(NCCN)c3ncc(C)n3c2c1 + CS(=O)(=O)N1CCN(Cc2cc3nc(-c4cccc5[nH]ncc45)nc(N4CCOCC4)c3s2)CC1 [Pictilisib] (partner 1 µM)
# Summary of the method: (§1)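 After 5 days of treatment, lung cancer cells in 1536-well plates were fixed and stained in a single step (final 0.05% Triton X-100, 1% formaldehyde, 1 ug/ml Hoechst) and their nuclei counted on 4× images. Treatment had been applied by pin tool the day after seeding as one drug alone or as a fixed anchor-drug dose with five library-drug doses (not always all listed) in √10 steps. Relative viability is the nuclei count of treated wells divided by that of vehicle wells, and values are medians of duplicate plates.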
# Salubrinal + Pemetrexed = compound: O=C(/C=C/c1ccccc1)NC(NC(=S)Nc1cccc2cccnc12)C(Cl)(Cl)Cl [Salubrinal] + Nc1nc2[nH]cc(CCc3ccc(C(=O)N[C@@H](CCC(=O)O)C(=O)O)cc3)c2c(=O)[nH]1 [Pemetrexed] (partner 0.2 µM)
# Summary of the method: as §1
# Salubrinal + Foretinib = compound: O=C(/C=C/c1ccccc1)NC(NC(=S)Nc1cccc2cccnc12)C(Cl)(Cl)Cl [Salubrinal] + COc1cc2c(Oc3ccc(NC(=O)C4(C(=O)Nc5ccc(F)cc5)CC4)cc3F)ccnc2cc1OCCCN1CCOCC1 [Foretinib] (partner 0.25 µM)
# Summary of the method: as §1
# Salubrinal + Phenformin = compound: O=C(/C=C/c1ccccc1)NC(NC(=S)Nc1cccc2cccnc12)C(Cl)(Cl)Cl [Salubrinal] + N=C(N)NC(=N)NCCc1ccccc1 [Phenformin] (partner 250 µM)
# Summary of the method: as §1
cell line,measurement,setting,value
UMC-11,relative viability,[1]; first compound 0.04 µM,0.857
same,relative viability,[1]; first compound 0.1265 µM,0.692
same,relative viability,[1]; first compound 0.4 µM,0.808
same,relative viability,[1]; first compound 1.265 µM,0.813
same,relative viability,[1]; first compound 4 µM,0.708
same,relative viability,Salubrinal + Pemetrexed; first compound 0.08 µM,0.766
same,relative viability,Salubrinal + Pemetrexed; first compound 0.253 µM,0.675
same,relative viability,Salubrinal + Pemetrexed; first compound 0.8 µM,0.968
same,relative viability,Salubrinal + Pemetrexed; first compound 2.53 µM,0.729
same,relative viability,Salubrinal + Pemetrexed; first compound 8 µM,0.726
same,relative viability,Salubrinal + Foretinib; first compound 0.08 µM,1.17
same,relative viability,Salubrinal + Foretinib; first compound 0.253 µM,1
same,relative viability,Salubrinal + Foretinib; first compound 0.8 µM,1.13
same,relative viability,Salubrinal + Foretinib; first compound 2.53 µM,1.1
same,relative viability,Salubrinal + Foretinib; first compound 8 µM,1.21
same,relative viability,Salubrinal + Phenformin; first compound 0.08 µM,0.354
same,relative viability,Salubrinal + Phenformin; first compound 0.253 µM,0.354
same,relative viability,Salubrinal + Phenformin; first compound 0.8 µM,0.335
same,relative viability,Salubrinal + Phenformin; first compound 2.53 µM,0.332
same,relative viability,Salubrinal + Phenformin; first compound 8 µM,0.299

# Reference: the supplement of paper PMC10307832
